Experimental data taken from publication PMC7385619, “A triple action CDK4/6-PI3K-BET inhibitor with augmented cancer cell cytotoxicity” (Cell Discovery, 2020).

Legend:
Assay in all cases: KINOMEscan assay (Eurofins DiscoverX)
Assay type in all cases: binding
[1] = molecular target: T1, kinome (kinase panel) (Homo sapiens, UniProt Q9BZL6); settings: PRKD2; 1000 nM; read-out: Percent Control
T1 construct: purchased Eurofins DiscoverX

[2] = molecular target: T2, kinome (kinase panel) (Homo sapiens, UniProt Q6P2M8); settings: CAMK1B (Entrez PNCK); 1000 nM; read-out: Percent Control
T2 construct: purchased Eurofins DiscoverX

[3] = molecular target: T3, kinome (kinase panel) (Homo sapiens, UniProt O94804); settings: LOK (Entrez STK10); 1000 nM; read-out: Percent Control
T3 construct: purchased Eurofins DiscoverX

[4] = molecular target: T4, kinome (kinase panel) (Homo sapiens, UniProt Q13882); settings: BRK (Entrez PTK6); 1000 nM; read-out: Percent Control
T4 construct: purchased Eurofins DiscoverX

[5] = molecular target: T5, kinome (kinase panel) (Homo sapiens, UniProt Q12852); settings: DLK (Entrez MAP3K12); 1000 nM; read-out: Percent Control
T5 construct: purchased Eurofins DiscoverX

[6] = molecular target: T6, kinome (kinase panel) (Homo sapiens, UniProt O14920); settings: IKK-beta (Entrez IKBKB); 1000 nM; read-out: Percent Control
T6 construct: purchased Eurofins DiscoverX

[7] = molecular target: T7, kinome (kinase panel) (Homo sapiens, UniProt P54753); settings: EPHB3; 1000 nM; read-out: Percent Control
T7 construct: purchased Eurofins DiscoverX

[8] = molecular target: T8, kinome (kinase panel) (Homo sapiens, UniProt Q16512); settings: PKN1; 1000 nM; read-out: Percent Control
T8 construct: purchased Eurofins DiscoverX

[9] = molecular target: T9, kinome (kinase panel) (Homo sapiens, UniProt P42336, H1047L); settings: read-out: Percent Control
T9 construct: purchased Eurofins DiscoverX

[10] = molecular target: T10, kinome (kinase panel) (Homo sapiens, UniProt Q5S007); settings: LRRK2; 1000 nM; read-out: Percent Control
T10 construct: purchased Eurofins DiscoverX

[11] = molecular target: T11, kinome (kinase panel) (Homo sapiens, UniProt P42336, E545A); settings: read-out: Percent Control
T11 construct: purchased Eurofins DiscoverX

[12] = molecular target: T12, kinome (kinase panel) (Homo sapiens, UniProt Q8IWQ3); settings: BRSK2; 1000 nM; read-out: Percent Control
T12 construct: purchased Eurofins DiscoverX

[13] = molecular target: T13, kinome (kinase panel) (Homo sapiens, UniProt Q9BWU1); settings: CDK11 (Entrez CDK19); 1000 nM; read-out: Percent Control
T13 construct: purchased Eurofins DiscoverX

[14] = molecular target: T14, kinome (kinase panel) (Homo sapiens, UniProt P00533, G719C); settings: […]; 1000 nM; read-out: Percent Control
T14 construct: purchased Eurofins DiscoverX

[15] = molecular target: T15, kinome (kinase panel) (Homo sapiens, UniProt O43283); settings: LZK (Entrez MAP3K13); 1000 nM; read-out: Percent Control
T15 construct: purchased Eurofins DiscoverX

[16] = molecular target: T16, kinome (kinase panel) (Plasmodium falciparum, UniProt P62344); settings: PFCDPK1(P.falciparum) (Entrez CDPK1); 1000 nM; read-out: Percent Control
T16 construct: purchased Eurofins DiscoverX

[17] = molecular target: T17, kinome (kinase panel) (Homo sapiens, UniProt Q86YV6); settings: MYLK4; 1000 nM; read-out: Percent Control
T17 construct: purchased Eurofins DiscoverX

[18] = molecular target: T18, kinome (kinase panel) (Homo sapiens, UniProt O43293); settings: DAPK3; 1000 nM; read-out: Percent Control
T18 construct: purchased Eurofins DiscoverX

[19] = molecular target: T19, kinome (kinase panel) (Homo sapiens, UniProt Q9Y2H1); settings: NDR2 (Entrez STK38L); 1000 nM; read-out: Percent Control
T19 construct: purchased Eurofins DiscoverX

[20] = molecular target: T20, kinome (kinase panel) (Homo sapiens, UniProt O15264); settings: p38-delta (Entrez MAPK13); 1000 nM; read-out: Percent Control
T20 construct: purchased Eurofins DiscoverX

[21] = molecular target: T21, kinome (kinase panel) (Homo sapiens, UniProt Q9HBY8); settings: SGK2; 1000 nM; read-out: Percent Control
T21 construct: purchased Eurofins DiscoverX

[22] = molecular target: T22, kinome (kinase panel) (Homo sapiens, UniProt Q9NRH2); settings: SNRK; 1000 nM; read-out: Percent Control
T22 construct: purchased Eurofins DiscoverX

[23] = molecular target: T23, kinome (kinase panel) (Homo sapiens, UniProt Q9BYP7); settings: WNK3; 1000 nM; read-out: Percent Control
T23 construct: purchased Eurofins DiscoverX

[24] = molecular target: T24, kinome (kinase panel) (Homo sapiens, UniProt Q8N568); settings: DCAMKL2 (Entrez DCLK2); 1000 nM; read-out: Percent Control
T24 construct: purchased Eurofins DiscoverX

[25] = molecular target: T25, kinome (kinase panel) (Homo sapiens, UniProt P49336); settings: CDK8; 1000 nM; read-out: Percent Control
T25 construct: purchased Eurofins DiscoverX

[26] = molecular target: T26, kinome (kinase panel) (Homo sapiens, UniProt Q96SB4); settings: SRPK1; 1000 nM; read-out: Percent Control
T26 construct: purchased Eurofins DiscoverX

[27] = molecular target: T27, kinome (kinase panel) (Homo sapiens, UniProt P78362); settings: SRPK2; 1000 nM; read-out: Percent Control
T27 construct: purchased Eurofins DiscoverX

[28] = molecular target: T28, kinome (kinase panel) (Homo sapiens, UniProt Q99640); settings: PKMYT1; 1000 nM; read-out: Percent Control
T28 construct: purchased Eurofins DiscoverX

[29] = molecular target: T29, kinome (kinase panel) (Homo sapiens, UniProt P53355); settings: DAPK1; 1000 nM; read-out: Percent Control
T29 construct: purchased Eurofins DiscoverX

[30] = molecular target: T30, kinome (kinase panel) (Homo sapiens, UniProt P54646); settings: AMPK-alpha2 (Entrez PRKAA2); 1000 nM; read-out: Percent Control
T30 construct: purchased Eurofins DiscoverX

[31] = molecular target: T31, kinome (kinase panel) (Homo sapiens, UniProt Q8N4C8); settings: MINK (Entrez MINK1); 1000 nM; read-out: Percent Control
T31 construct: purchased Eurofins DiscoverX

[32] = molecular target: T32, kinome (kinase panel) (Homo sapiens, UniProt Q9Y6E0); settings: MST3 (Entrez STK24); 1000 nM; read-out: Percent Control
T32 construct: purchased Eurofins DiscoverX

T27 sequence (P78362 whole entry): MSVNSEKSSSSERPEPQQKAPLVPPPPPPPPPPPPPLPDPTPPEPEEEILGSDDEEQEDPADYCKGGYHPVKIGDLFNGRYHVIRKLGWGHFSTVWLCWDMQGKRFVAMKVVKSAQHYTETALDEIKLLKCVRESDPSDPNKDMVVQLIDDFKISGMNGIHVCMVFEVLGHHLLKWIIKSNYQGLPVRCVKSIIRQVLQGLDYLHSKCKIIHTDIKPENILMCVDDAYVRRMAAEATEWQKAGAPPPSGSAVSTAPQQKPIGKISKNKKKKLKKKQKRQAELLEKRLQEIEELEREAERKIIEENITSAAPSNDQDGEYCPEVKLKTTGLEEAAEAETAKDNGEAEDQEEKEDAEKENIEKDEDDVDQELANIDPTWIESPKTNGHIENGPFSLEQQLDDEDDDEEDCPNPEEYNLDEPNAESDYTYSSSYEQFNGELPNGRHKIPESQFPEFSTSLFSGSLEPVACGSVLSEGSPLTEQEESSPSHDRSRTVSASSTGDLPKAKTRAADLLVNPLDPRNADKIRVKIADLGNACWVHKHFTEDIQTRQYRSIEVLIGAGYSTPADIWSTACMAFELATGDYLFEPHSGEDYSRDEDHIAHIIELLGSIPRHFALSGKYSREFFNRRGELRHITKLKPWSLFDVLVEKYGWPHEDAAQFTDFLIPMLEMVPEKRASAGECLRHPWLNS
T23 sequence (Q9BYP7 whole entry): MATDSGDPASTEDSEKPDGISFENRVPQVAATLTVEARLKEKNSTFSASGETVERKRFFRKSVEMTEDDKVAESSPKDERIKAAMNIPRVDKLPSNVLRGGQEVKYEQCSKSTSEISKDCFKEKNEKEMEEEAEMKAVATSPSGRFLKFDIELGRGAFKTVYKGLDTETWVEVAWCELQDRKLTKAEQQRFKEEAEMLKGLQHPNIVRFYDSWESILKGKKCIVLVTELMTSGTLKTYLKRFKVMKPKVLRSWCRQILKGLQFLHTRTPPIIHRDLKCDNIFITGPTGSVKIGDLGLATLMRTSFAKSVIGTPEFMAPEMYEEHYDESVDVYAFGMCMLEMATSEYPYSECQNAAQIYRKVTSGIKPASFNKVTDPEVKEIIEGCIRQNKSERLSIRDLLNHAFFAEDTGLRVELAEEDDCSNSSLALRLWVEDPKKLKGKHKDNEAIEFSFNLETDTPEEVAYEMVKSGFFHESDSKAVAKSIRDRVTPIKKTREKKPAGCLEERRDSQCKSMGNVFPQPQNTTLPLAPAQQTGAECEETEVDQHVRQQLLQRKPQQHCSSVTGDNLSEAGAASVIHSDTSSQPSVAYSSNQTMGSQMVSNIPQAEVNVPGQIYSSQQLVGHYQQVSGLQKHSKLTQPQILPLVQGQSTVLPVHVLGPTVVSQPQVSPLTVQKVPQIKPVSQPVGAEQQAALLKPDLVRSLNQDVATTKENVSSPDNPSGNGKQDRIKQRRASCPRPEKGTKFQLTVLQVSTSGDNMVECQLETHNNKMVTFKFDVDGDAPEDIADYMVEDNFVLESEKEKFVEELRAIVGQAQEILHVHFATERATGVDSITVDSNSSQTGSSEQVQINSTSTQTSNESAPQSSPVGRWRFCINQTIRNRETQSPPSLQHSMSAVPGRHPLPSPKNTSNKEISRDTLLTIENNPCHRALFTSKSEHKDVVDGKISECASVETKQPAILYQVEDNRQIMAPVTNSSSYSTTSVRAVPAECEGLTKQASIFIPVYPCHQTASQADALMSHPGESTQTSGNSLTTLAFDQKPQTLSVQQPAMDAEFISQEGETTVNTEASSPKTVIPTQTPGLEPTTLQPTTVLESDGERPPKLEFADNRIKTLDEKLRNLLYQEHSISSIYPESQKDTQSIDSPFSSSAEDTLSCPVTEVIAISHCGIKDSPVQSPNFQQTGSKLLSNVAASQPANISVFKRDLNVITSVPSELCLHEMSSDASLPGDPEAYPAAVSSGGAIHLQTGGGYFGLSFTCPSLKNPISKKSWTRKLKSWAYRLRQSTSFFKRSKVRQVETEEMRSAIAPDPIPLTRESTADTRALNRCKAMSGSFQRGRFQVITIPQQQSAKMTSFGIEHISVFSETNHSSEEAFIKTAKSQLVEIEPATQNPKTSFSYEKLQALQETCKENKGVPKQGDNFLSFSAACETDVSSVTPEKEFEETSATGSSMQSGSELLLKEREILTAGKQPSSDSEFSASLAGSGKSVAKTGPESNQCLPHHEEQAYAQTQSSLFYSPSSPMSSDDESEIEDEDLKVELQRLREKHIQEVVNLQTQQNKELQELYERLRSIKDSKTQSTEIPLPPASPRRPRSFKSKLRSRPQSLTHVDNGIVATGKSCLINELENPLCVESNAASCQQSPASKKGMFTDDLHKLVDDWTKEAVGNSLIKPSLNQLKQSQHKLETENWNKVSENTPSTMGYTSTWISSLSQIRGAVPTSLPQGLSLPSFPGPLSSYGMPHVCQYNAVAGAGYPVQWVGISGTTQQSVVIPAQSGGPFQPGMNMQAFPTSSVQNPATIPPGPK
T24 sequence (Q8N568 whole entry): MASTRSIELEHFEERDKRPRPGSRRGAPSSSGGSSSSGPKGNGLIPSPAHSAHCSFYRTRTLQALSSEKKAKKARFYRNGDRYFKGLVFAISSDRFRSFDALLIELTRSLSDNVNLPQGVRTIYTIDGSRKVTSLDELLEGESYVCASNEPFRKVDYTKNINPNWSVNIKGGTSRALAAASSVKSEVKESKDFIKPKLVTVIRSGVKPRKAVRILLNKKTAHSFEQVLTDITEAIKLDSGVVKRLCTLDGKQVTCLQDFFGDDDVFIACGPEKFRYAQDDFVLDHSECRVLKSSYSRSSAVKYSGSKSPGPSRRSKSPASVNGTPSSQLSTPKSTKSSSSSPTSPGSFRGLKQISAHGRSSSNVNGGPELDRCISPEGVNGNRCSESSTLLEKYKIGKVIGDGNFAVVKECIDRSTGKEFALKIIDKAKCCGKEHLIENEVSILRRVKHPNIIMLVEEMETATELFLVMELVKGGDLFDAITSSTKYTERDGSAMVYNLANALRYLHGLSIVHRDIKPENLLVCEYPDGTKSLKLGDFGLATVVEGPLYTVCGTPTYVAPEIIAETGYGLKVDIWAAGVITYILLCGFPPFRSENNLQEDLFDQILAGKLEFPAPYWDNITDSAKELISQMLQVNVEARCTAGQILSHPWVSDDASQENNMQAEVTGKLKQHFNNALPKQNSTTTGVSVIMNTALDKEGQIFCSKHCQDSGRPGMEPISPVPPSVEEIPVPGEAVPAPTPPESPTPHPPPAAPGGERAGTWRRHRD
T7 sequence (P54753 34-998): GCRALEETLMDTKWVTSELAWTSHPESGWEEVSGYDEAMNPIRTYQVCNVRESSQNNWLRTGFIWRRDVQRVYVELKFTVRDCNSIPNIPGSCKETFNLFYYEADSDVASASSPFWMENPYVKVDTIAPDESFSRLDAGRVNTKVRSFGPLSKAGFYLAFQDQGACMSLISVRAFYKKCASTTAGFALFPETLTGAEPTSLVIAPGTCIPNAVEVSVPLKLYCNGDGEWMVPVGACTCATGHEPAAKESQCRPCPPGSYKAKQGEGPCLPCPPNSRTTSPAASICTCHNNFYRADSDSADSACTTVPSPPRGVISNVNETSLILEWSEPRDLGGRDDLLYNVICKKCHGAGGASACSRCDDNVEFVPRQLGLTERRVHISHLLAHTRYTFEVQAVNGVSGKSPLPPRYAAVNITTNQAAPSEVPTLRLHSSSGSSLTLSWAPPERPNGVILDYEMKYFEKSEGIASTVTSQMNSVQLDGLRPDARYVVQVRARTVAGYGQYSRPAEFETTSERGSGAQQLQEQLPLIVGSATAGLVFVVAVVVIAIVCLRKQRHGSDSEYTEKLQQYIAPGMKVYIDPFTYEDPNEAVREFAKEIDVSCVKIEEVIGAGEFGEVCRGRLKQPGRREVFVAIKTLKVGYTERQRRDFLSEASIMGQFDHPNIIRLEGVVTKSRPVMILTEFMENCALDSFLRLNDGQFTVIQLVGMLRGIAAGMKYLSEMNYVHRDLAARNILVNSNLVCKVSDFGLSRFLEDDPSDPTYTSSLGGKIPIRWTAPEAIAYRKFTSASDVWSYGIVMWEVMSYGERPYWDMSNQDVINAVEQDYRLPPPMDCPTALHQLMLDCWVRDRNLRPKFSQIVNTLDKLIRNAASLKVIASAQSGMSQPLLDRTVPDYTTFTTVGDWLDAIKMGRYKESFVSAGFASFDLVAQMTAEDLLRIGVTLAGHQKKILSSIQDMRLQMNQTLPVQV
T22 sequence (Q9NRH2 whole entry): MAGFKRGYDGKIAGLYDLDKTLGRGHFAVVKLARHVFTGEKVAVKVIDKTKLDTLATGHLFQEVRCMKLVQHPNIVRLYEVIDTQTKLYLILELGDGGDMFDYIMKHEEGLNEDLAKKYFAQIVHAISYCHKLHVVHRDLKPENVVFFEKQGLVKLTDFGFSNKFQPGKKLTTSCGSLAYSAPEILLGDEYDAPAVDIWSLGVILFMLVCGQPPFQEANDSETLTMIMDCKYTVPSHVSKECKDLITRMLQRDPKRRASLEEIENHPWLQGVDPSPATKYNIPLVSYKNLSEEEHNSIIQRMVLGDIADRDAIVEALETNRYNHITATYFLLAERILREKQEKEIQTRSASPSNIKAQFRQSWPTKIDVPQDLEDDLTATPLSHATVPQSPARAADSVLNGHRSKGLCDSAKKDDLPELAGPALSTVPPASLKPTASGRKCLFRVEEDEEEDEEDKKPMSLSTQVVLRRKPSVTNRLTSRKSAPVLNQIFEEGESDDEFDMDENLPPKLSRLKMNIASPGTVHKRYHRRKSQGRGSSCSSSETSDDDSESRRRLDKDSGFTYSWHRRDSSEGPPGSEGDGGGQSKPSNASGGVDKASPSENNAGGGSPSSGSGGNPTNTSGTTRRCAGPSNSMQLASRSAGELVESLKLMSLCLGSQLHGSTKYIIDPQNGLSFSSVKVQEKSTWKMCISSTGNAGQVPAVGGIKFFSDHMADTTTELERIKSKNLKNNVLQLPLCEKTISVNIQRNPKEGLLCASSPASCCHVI

CN(C)C(=O)c1cc2cnc(Nc3ccc(-c4csc5c(=O)cc(N6CCOCC6)oc45)cc3)nc2n1C1CCCC1 [SRX3177]
remaining binding at 1 µM [1]: 100% | remaining binding at 1 µM [2]: 41% | remaining binding at 1 µM [3]: 100% | remaining binding at 1 µM [4]: 100% | remaining binding at 1 µM [5]: 73% | remaining binding at 1 µM [6]: 71% | remaining binding at 1 µM [7]: 97% | remaining binding at 1 µM [8]: 55% | remaining binding at 1 µM [9]: 41% | remaining binding at 1 µM [10]: 34% | remaining binding at 1 µM [11]: 82% | remaining binding at 1 µM [12]: 100% | remaining binding at 1 µM [13]: 80% | remaining binding at 1 µM [14]: 79% | remaining binding at 1 µM [15]: 48% | remaining binding at 1 µM [16]: 71% | remaining binding at 1 µM [17]: 100% | remaining binding at 1 µM [18]: 100% | remaining binding at 1 µM [19]: 90% | remaining binding at 1 µM [20]: 97% | remaining binding at 1 µM [21]: 65% | remaining binding at 1 µM [22]: 82% | remaining binding at 1 µM [23]: 100% | remaining binding at 1 µM [24]: 90% | remaining binding at 1 µM [25]: 90% | remaining binding at 1 µM [26]: 22% | remaining binding at 1 µM [27]: 89% | remaining binding at 1 µM [28]: 88% | remaining binding at 1 µM [29]: 100% | remaining binding at 1 µM [30]: 98% | remaining binding at 1 µM [31]: 77% | remaining binding at 1 µM [32]: 93%
